{"source": "paper PMC4175002", "about": "“The Design and Synthesis of Potent and Selective Inhibitors of Trypanosoma brucei Glycogen Synthase Kinase 3 for the Treatment of Human African Trypanosomiasis” (Journal of Medicinal Chemistry, 2014)", "key": {"HsGSK3β": {"target": "HsGSK3β (Homo sapiens, UniProt P49841)", "sequence (P49841 whole entry)": "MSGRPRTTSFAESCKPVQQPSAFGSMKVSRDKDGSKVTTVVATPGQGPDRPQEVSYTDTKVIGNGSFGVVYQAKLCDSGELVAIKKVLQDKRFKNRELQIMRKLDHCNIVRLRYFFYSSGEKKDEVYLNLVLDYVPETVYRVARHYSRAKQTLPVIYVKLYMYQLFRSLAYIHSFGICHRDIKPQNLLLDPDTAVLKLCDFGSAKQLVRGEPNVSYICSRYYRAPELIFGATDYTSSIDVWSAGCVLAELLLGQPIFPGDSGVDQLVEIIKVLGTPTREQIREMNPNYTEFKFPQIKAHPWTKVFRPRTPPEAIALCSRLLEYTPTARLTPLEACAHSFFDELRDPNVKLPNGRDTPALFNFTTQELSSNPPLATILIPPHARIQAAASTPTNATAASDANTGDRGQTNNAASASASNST", "assay": "Radiometric Flashplate potency assay, HsGSK3β", "type": "biochemical", "conditions": "ratio of IC50 values", "procedure": "(§1) For compound potency determinations, a radiometric 96-well Flashplate assay (PerkinElmer) was adopted. Compounds were solubilized in DMSO at a top concentration of 3 mM and serially diluted to achieve 10-point titration of final assay concentrations from 30 μM to 0.3 nM with a final DMSO concentration of 1% (v/v). The reaction mixtures contained 1 μM biotinylated GSP2 substrate, 1 μM ATP, 3.7 KBq/well [γ-33P]-ATP and 2.5 nM TbGSK3 in the TbGSK3 kinase assay buffer. GSK3 inhibitors were screened for selectivity assessment also against HsGSK3β. For HsGSK3 assay, the reaction mixes contained 1 μM biotinylated GSP2 substrate, 2 μM ATP, 7.4 KBq/well [γ-33P]-ATP and 15 nM HsGSK3β in the TbGSK3 kinase assay buffer (25 mM Tris-HCl, pH 7.5, 10 mM MgCl2, 5 mM DTT, 0.02% CHAPS, 2 U/mL heparin). For HsCDK2/cyclin A assay, the reaction mixtures contained 1 mM CDK5 biotinylated peptide substrate (Biotin-C6-PKTPKKAKKL), 1 μM ATP, 7.4 KBq/well [γ-^33P]-ATP and 2 nM HsCDK2/cyclin A in the kinase assay buffer (50 mM Tris-HCl, pH 7.5, 10 mM MgCl2, 2 mM DTT, 100 mM NaCl, 0.2 mM EGTA, 0.02% (v/v) Brij35).\nThis implies that a difference of >0.3 in pIC50 can be considered statistically significant for this assay."}, "[1]": {"system": "bloodstream form T. b. brucei", "assay": "Trypanosome proliferation assay (resazurin)", "type": "cell-based", "conditions": "Trypanosoma brucei, 72 h, concentration required to inhibit growth in culture by 50% over 72 h", "procedure": "Measurement of inhibition of the proliferation of MRC5 (human lung fibroblast) cells and T. b. brucei bloodstream stage cells was performed using a modification of the cell viability assay previously described.[33] Compounds (50 μM to 0.5 nM) were incubated with 2 × 10^3 cells/well in 0.2 mL of the appropriate culture medium (MEM with 10% fetal bovine serum for MRC5 cells) in clear 96-well plates. Plates were incubated at 37 °C in the presence of 5% CO2 for 69 h. Resazurin was then added to a final concentration of 50 μM, and plates were incubated as above for a further 4 h before being read on a BioTek flx800 fluorescent plate reader."}, "TbGSK3 short": {"target": "T1, TbGSK3 short (Trypanosoma brucei brucei, UniProt Q388M1)", "T1 sequence (Q388M1 1-352)": "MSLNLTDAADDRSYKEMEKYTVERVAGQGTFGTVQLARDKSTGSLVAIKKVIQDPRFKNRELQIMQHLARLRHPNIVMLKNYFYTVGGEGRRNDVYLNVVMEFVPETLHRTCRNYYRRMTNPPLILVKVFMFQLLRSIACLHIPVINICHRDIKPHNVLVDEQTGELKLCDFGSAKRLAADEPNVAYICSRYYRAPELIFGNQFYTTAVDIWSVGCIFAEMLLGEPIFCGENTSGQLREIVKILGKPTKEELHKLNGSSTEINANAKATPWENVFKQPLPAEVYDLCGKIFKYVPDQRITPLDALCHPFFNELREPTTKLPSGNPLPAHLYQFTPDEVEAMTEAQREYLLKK", "assay": "Radiometric 96-well Flashplate potency assay, TbGSK3", "type": "biochemical", "conditions": "more potent than the unsubstituted phenyl compound 4f", "procedure": "as §1\nThe statistical significance of the compound potency (IC50) was based on the performance of standard molecules which have been tested to a high replication. In the case of TbGSK3 short assay, the standard compound GW8510 was tested 93 times across 9 independent runs. […] The minimum significant ratio (MSR) of 0.4 was evaluated considering the following formula: [drawing 1] where SD is the standard deviation and N the number of replicate values routinely used for the assay (2 in our case).[31] This implies that a difference of >0.4 in pIC50 can be considered statistically significant for this assay."}}}
{"smiles": "COc1ccccc1C(=O)Nc1c[nH]nc1C(=O)N[C@H]1CC[C@H](OC)CC1", "note": "[Compound 4j, 4-(2-Methoxybenzamido)-N-(4-methoxycyclohexyl)-1H-pyrazole-3-carboxamide]", "values": [{"measurement": "ratio HsGSK3β/TbGSK3", "setting": "HsGSK3β", "result": "<3.3"}, {"measurement": "EC50", "setting": "[1]", "result": "< 1", "unit": "µM"}, {"measurement": "TbGSK3 potency relative to 4f", "setting": "TbGSK3 short", "result": "approximately 10 fold"}]}
